Measurements published in US10981926B2 (Janssen Pharmaceutica NV, priority 2016, dated 2021).
pEC50, pIC50: −log10 of the molar value. Like-named read-outs stand apart in the source and are kept apart here.

Key:
Format in all cases: cell-based
[1] = system: LNCaP F876L; experiment: LNCaP Proliferation Assay (LNCaP F876L); conditions: Homo sapiens, 96 h, 4 days, CellTiter-Glo, normalized to 0.1 nM R1881 stimulation
Protocol: (§1) LNCaP cells were expanded in RPMI 10% FBS in T150 flasks. The cells were dislodged with 0.25% Trypsin, washed in complete media, centrifuged (300 g, 3 min), and the supernatant aspirated. The cells were resuspended in RPMI phenol-red free media with 1% charcoal-stripped serum (CSS) and counted using a ViCELL (Beckman-Coulter). 7500 cells were added to each well of a white optical bottom 384-well plate and incubated for 2 days at 37° C. 5% CO2. Compound dilutions were prepared in RPMI CSS using 50 mM stock solutions and added to the cells either alone (agonist mode) or in combination with 0.1 nM R1881 (antagonist mode). The plates were incubated for 4 days, followed by addition of CellTiter-Glo Luminescent Cell Viability kit reagent (Promega). The plates were placed on a shaker at 3000 rpm for 10 minutes and then read on an EnVision plate reader (Perkin Elmer) using Luminescence assay default settings. The data was analyzed, normalized to 0.1 nM R1881 stimulation, and plotted in GraphPad Prism.

[2] = system: LNCaP WT; experiment: LNCaP Proliferation Assay (LNCaP WT); conditions: Homo sapiens, 96 h, 4 days, CellTiter-Glo, normalized to 0.1 nM R1881 stimulation
Protocol: as §1

[3] = biological target: wild-type Androgen Receptor (AR-wt) (Homo sapiens (Human), UniProt P10275); experiment: LNCaP-AR-wt ANT reporter assay (antagonist mode)
[4] = biological target: AR in LNCaP cells (Homo sapiens (Human), UniProt P10275, T878A); experiment: LNCaP AR Localization Assay; conditions: 4 h, read-out: Inhibition of translocation
Protocol: LNCaP cells were expanded in RPMI 10% FBS in T150 flasks. The cells were dislodged with 0.25% Trypsin, washed in complete media, centrifuged (300 g, 3 min), and the supernatant aspirated. The cells were resuspended in RPMI phenol-red free media with 1% charcoal-stripped serum (CSS) and counted using a ViCELL (Beckman-Coulter). Three million cells in 7 mL of RPMI CSS were seeded into 100 mm dishes and incubated overnight at 37° C. 5% CO2. The following morning, compound dilutions were prepared in RPMI CSS using 50 mM stock solutions and added directly to the cells to obtain the final concentration of 10 μM. The dishes were placed into the incubator for 4 h. After 4 h, cell scrapers were used to dislodge the cells and the media/cell solution was centrifuged, supernatant aspirated, and then washed with Cell Wash Buffer (Protein Simple). The pellets were stored at −80° C. or processed immediately using the Subcellular Protein Fractionation Kit for Cultured Cells (Thermo-Fisher). The fractions obtained from this kit were stored at −80° C. Later, the samples' protein concentration was determined using the BCA Assay Kit (Thermo-Fisher) and the fraction lysates normalized to 0.6 mg/mL. The lysates were run on the Wes Simple Western platform (ProteinSimple). The data was analyzed, normalized to the total AR, and plotted in GraphPad Prism. […]

[5] = system: VCaP cells; experiment: Prostate Cancer Cell Viability Assay-VCaP; conditions: Homo sapiens, 120 h, 5 days, CellTiter-Glo
Protocol: VCaP cells were counted and seeded into black 384-well plates with clear bottoms at a concentration of 125,000 cells per mL in phenol red-free DMEM containing 10% Charcoal Stripped Serum. 16 μL of the suspension was added per well and incubated for 48 h to allow the cells to adhere. After 48 hours, a 12 point serial semilog dilution of each compound was added to the cells in 16 μL at a final concentration of 100 μM to 0.0003 μM. The compounds of Formula (I) were also run in antagonist mode using 30 pM R1881 in which 8 μL of the compound was added to the cells followed by 8 μL of R1881. After 5 days of incubation at 37° C., 16 μL Of CellTiter-Glo (Promega) was added to the cells and the relative luminescence units (RLUs) of each well determined using the Envision. The percent stimulation and % inhibition were determined for each sample and plotted using GraphPad Prism.

[6] = biological target: AR W741C (Homo sapiens (Human), UniProt P10275, W742C); experiment: Luciferase Transcriptional Reporter Assay, AR W741C (HepG2)
Protocol: (§2) HepG2 cells were maintained in EMEM supplemented with 10% FBS. One day before transfection, the media was changed to EMEM with 10% CSS. T-150 flasks were transiently transfected using 120 μL Lipofectamine 2000 (Life Technologies), 30 μg mutant cDNA (expression vector)—mutant cDNA tested were L701H, T877A, W741C and H874Y—and 40 μg 4×ARE-Luciferase (reporter vector) in OptiMEM and the flasks were incubated overnight. Cells were then trypsinized, counted and resuspended at 500,000 cells/mL. For agonist mode, the compounds of Formula (I) were serially diluted and 50 μL of the compound was added per well. 50 μL of the cells were added to each well and incubated for 48 hours. For antagonist mode, a final concentration of 90 pM R1881 was added to the diluted compounds and incubated for 48 hours. The plates were then assayed using SteadyGlo and read on the Envision. Percent Stimulation and Inhibition were determined and analyzed using GraphPad Prism.
(§3) F876L agonism was evident at 3 and 10 μM (5%) but zero at 30 μM. The antagonistic (IC50) and agonistic (EC50) values for each of the AR cDNA used in the reporter assays are summarized. All values are calculated relative to the activity of R1881 induced androgen receptor activity (n≥3). Also indicated are the maximal inhibition and extent of induction of androgen dependent signaling (%).

[7] = biological target: AR L701H (Homo sapiens, UniProt P10275, L702H); experiment: Luciferase Transcriptional Reporter Assay, AR L701H (HepG2)
Protocol: as §2, §3

[8] = biological target: AR H874Y (Homo sapiens (Human), UniProt P10275, H875Y); experiment: Luciferase Transcriptional Reporter Assay, AR H874Y (HepG2)
Protocol: as §2, §3

Sequence of AR L701H (P10275 whole entry L702H): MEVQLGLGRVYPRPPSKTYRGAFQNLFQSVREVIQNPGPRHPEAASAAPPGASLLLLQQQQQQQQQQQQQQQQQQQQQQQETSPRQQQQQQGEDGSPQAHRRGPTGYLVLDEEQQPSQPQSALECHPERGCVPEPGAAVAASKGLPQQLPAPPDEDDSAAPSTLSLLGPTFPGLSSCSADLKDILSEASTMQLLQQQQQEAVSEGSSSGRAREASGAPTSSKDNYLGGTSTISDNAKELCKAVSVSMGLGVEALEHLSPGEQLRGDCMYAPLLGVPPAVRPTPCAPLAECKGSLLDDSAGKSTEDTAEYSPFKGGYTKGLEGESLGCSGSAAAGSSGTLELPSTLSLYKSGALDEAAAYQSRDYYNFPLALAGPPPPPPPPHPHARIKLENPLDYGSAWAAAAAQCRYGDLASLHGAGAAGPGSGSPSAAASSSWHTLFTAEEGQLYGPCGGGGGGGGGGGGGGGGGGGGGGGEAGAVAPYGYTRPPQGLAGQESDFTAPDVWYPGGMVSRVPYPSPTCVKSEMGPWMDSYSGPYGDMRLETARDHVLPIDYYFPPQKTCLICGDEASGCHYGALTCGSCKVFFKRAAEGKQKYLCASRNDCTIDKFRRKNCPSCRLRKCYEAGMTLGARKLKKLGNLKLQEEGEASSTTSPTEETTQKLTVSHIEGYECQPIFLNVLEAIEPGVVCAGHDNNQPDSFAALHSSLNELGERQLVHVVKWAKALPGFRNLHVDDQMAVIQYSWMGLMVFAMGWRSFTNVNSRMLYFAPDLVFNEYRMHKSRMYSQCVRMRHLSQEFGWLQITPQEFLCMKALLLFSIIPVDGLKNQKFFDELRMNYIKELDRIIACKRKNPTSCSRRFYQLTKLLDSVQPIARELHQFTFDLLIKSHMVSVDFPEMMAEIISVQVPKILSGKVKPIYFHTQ
Sequence of AR H874Y (P10275 whole entry H875Y): as the sequence (P10275 whole entry L702H) above, with H702L, H875Y counted along it
Sequence of AR W741C (P10275 whole entry W742C): as the sequence (P10275 whole entry L702H) above, with H702L, W742C counted along it
Sequence of wild-type Androgen Receptor (AR-wt) (P10275 whole entry): as the sequence (P10275 whole entry L702H) above, with H702L counted along it
Sequence of AR in LNCaP cells (P10275 whole entry T878A): as the sequence (P10275 whole entry L702H) above, with H702L, T878A counted along it

LNCaP-AR-wt ANT pIC50 ([3]; antagonist mode, pIC50 = −Log10(IC50 in Molar)): 7.27 | LNCaP-AR-wt ANT MAX % Inh ([3]; maximum % inhibition of R1881 control response over the tested concentration range): 101.1% | inhibition at 10 µM [4]: 50% | pIC50 [5]: 6.57 | pEC50 ([6]; HepG2, agonist mode, 48 hours, read-out: Agonism EC50, AR construct W741C): 5.55 | Emax ([6]; HepG2, agonist mode, relative to R1881, read-out: Agonism % Emax, AR construct W741C): 0% | pIC50 ([6]; HepG2, antagonist mode, 90 pM R1881, 48 hours, read-out: Antagonism IC50, AR construct W741C): 4.91 | Emax ([6]; HepG2, antagonist mode, maximal inhibition, read-out: Antagonism % Emax, AR construct W741C): 85% | Emax ([7]; HepG2, agonist mode, relative to R1881, read-out: Agonism % Emax, AR construct L701H): 0% | pIC50 ([7]; HepG2, antagonist mode, 90 pM R1881, 48 hours, read-out: Antagonism IC50, AR construct L701H): 5.00 | Emax ([7]; HepG2, antagonist mode, maximal inhibition, read-out: Antagonism % Emax, AR construct L701H): 90% | Emax ([8]; HepG2, agonist mode, relative to R1881, read-out: Agonism % Emax, AR construct H874Y): 0% | pIC50 ([8]; HepG2, antagonist mode, 90 pM R1881, 48 hours, read-out: Antagonism IC50, AR construct H874Y): 4.77 | Emax ([8]; HepG2, antagonist mode, maximal inhibition, read-out: Antagonism % Emax, AR construct H874Y): 80%
Compound: N#Cc1ncc(N2C(=O)C3(CCC3)N(c3ccc(OC4CCNCC4)nc3)C2=S)cc1C(F)(F)F [Cpd 43, 5-[5-oxo-8-[6-(4-piperidyloxy)-3-pyridyl]-7-thioxo-6,8-diazaspiro[3.4]octan-6-yl]-3-(trifluoromethyl)pyridine-2-carbonitrile]
pIC50 [1]: 6.71 | pIC50 [2]: 6.36
